Measurements taken from ChEMBL document CHEMBL1129503, “4'-O-[2-(2-fluoromalonyl)]-L-tyrosine: a phosphotyrosyl mimic for the preparation of signal transduction inhibitory peptides” (J Med Chem, 1996).
Where a SMILES comes first, the peptide text is derived from it. The star is where a group is joined. X2 = O=C(O)C(F)(C(=O)O)*; X1 = O=C(O)C(C(=O)O)*

Key:
[1] = Inhibition of binding to p85 Phosphatidylinositol 3-kinase C-terminal SH2 domain
[2] = target: T1, Tyrosine-protein phosphatase non-receptor type 1 (Homo sapiens, UniProt P18031); assay: Inhibitory activity against Protein-tyrosine phosphatase 1B-mediated dephosphorylation of phosphorylated insulin receptor using (CHO) cell line transfected with an expression plasmid encoding the normal human insulin receptor [CHO/HIRc]
T1 sequence (P18031 whole entry): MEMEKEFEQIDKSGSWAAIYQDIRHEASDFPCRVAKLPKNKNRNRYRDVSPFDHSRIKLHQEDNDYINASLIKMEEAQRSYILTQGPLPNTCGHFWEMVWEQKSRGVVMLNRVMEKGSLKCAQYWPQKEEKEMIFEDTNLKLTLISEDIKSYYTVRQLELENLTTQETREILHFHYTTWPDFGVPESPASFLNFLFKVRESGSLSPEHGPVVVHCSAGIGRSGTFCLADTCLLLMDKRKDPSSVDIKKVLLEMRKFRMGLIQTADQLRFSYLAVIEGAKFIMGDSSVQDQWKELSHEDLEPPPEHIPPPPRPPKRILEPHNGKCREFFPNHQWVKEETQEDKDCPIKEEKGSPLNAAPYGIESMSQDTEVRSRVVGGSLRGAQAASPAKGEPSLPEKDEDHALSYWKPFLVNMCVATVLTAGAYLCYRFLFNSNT

[3] = Ionization constant (pKa2) by treating potentiometric titration data according to the method Noyes; format: physicochemical; conditions: read-out: pKa2

IC50 [1] [µM] | IC50 [2] [µM] | pKa [3] | SMILES
 | 10 |  | CC(=O)N[C@@H](CC(=O)O)C(=O)N[C@@H](C)C(=O)N[C@@H](CC(=O)O)C(=O)N[C@@H](CCC(=O)O)C(=O)N[C@@H](Cc1ccc(OC(C(=O)O)C(=O)O)cc1)C(=O)N[C@@H](CC(C)C)C(N)=O (Ac-DADEY(X1)L-NH2)
 | 1 |  | CC(=O)N[C@@H](CC(=O)O)C(=O)N[C@@H](C)C(=O)N[C@@H](CC(=O)O)C(=O)N[C@@H](CCC(=O)O)C(=O)N[C@@H](Cc1ccc(OC(F)(C(=O)O)C(=O)O)cc1)C(=O)N[C@@H](CC(C)C)C(N)=O (Ac-DADEY(X2)L-NH2)

The next lines start with the compound.

SMILES | IC50 [1] [µM] | IC50 [2] [µM] | pKa [3]
CSCC[C@H](NC(=O)[C@@H]1CCCN1C(=O)[C@@H](NC(=O)[C@H](Cc1ccc(OC(F)(C(=O)O)C(=O)O)cc1)NC(=O)[C@H](CC(=O)O)NC(C)=O)C(C)C)C(=O)N[C@@H](CC(C)C)C(N)=O (Ac-DY(X2)VPML-NH2) | 18 |  | 
CSCC[C@H](NC(=O)[C@@H]1CCCN1C(=O)[C@@H](NC(=O)[C@H](Cc1ccc(OC(C(=O)O)C(=O)O)cc1)NC(=O)[C@H](CC(=O)O)NC(C)=O)C(C)C)C(=O)N[C@@H](CC(C)C)C(N)=O (Ac-DY(X1)VPML-NH2) | 14 |  | 
O=C(O)C(Oc1ccc2cc(Br)ccc2c1)C(=O)O |  |  | 3.91
O=C(O)C(F)(Oc1ccc2cc(Br)ccc2c1)C(=O)O |  |  | 2.84
